{"source": "paper PMC9147171", "about": "“Pharmacokinetic/Pharmacodynamic Evaluation of a New Purine-2,6-Dione Derivative in Rodents with Experimental Autoimmune Diseases” (Pharmaceutics, 2022)", "key": {"hrPDE1B": {"biological_target": "T1, hrPDE1B (Homo sapiens, UniProt Q01064)", "T1 construct": "purchased SignalChem, Richmond, Canada", "T1 sequence (Q01064 whole entry)": "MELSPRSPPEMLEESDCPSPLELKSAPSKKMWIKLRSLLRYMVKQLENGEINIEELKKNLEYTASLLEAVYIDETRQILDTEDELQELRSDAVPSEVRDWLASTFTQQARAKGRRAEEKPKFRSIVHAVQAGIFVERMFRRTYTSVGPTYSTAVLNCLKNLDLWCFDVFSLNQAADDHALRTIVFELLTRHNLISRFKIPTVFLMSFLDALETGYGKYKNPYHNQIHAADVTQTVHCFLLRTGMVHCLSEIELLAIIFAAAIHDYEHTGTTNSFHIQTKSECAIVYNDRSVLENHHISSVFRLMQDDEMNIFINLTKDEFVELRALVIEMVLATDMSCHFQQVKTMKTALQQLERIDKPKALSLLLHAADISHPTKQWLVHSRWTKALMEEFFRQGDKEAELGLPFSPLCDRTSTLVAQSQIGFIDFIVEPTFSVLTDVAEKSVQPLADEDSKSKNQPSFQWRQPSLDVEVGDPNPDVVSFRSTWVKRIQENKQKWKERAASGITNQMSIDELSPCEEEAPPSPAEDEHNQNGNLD", "assay": "PDE-Glo catalytic activity assay, PDE1B", "format": "biochemical", "description": "(§1) The inhibitory activity of compound 34 against hrPDE1B and hrPDE3A (SignalChem, Richmond, Canada) was assessed using the PDE-Glo™ catalytic activity assay (Promega Corporation, Madison, WI, USA). It was performed on 384-well plates according to manufacturer’s instructions with slight modifications. Solutions of both PDEs were prepared by diluting their stock solutions in the PDE-Glo™ Reaction Buffer and aliquots of 6.5 μL were added to the wells. A stock solution of the tested compound was prepared in DMSO at a concentration of 10 mM and serially diluted with the same solvent. The obtained solutions were further diluted with PDE-Glo™ Reaction Buffer (1:5, v/v) and aliquots of 1 μL were transferred to the respective wells. Then, the mixture was incubated for 10 min at 30 °C on a heated plate shaker (Grant Instruments, Cambridge, United Kingdom). The reaction was started by the addition of 2.5 μL of a 0.2 μM cAMP solution to each well and the plate was incubated for 10 min at 30 °C on a heated plate shaker. Moreover, for each series, respective control reactions were performed: no-substrate, no-enzyme negative control reactions; no-enzyme positive control reactions containing substrate; and no-inhibitor positive control reactions containing both the substrate and PDE. After incubation, the reaction was stopped by adding 2.5 μL of the PDE-Glo™ Termination Buffer. A volume of 2.5 μL of the PDE-Glo™ Detection Buffer was transferred to each well and the plate was incubated for 20 min at room temperature. Finally, an aliquot of 10 μL of the PDE-Glo Kinase® Reagent was added to the wells. The plate was incubated for 10 min at room temperature and luminescence was measured with a luminometer (BMG Labtech, Ortenberg, Germany). For each inhibitor concentration, four independent measurements were performed. The resulting data were expressed as percent of an uninhibited control and plotted against the inhibitor concentration. The IC50 values were estimated by nonlinear regression using ADAPT5 software (BMSR, Los Angeles, CA, USA)."}, "hrPDE3A": {"biological_target": "T2, hrPDE3A (Homo sapiens, UniProt Q14432)", "T2 construct": "purchased SignalChem, Richmond, Canada", "T2 sequence (Q14432 whole entry)": "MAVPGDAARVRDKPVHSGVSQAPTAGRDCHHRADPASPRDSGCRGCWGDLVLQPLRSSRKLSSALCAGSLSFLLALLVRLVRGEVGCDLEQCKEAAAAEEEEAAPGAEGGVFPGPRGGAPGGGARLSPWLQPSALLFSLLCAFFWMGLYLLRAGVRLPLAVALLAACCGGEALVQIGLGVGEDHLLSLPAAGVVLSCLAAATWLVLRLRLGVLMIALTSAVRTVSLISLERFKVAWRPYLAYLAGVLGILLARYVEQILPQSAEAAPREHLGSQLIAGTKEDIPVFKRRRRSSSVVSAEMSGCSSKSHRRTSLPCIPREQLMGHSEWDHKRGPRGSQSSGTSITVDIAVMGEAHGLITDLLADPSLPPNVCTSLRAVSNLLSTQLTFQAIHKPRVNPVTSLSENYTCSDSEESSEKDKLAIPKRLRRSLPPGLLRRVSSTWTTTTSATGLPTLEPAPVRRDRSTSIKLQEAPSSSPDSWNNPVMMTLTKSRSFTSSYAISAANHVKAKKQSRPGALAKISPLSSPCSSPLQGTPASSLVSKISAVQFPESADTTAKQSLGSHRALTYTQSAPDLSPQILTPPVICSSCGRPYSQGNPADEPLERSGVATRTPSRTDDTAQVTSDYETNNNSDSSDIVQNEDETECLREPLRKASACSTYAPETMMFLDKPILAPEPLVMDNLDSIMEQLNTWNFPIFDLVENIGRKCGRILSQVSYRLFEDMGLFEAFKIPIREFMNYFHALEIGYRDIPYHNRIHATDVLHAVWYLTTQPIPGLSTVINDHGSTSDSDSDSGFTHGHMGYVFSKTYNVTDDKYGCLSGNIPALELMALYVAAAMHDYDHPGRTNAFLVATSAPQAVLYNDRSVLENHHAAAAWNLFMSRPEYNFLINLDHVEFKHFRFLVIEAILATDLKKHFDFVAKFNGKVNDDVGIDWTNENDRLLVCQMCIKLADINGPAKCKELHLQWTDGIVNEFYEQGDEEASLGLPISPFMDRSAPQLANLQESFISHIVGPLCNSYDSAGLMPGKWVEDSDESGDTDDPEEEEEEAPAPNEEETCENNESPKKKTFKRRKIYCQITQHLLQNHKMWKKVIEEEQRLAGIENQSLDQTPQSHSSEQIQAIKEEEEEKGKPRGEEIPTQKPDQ", "assay": "PDE-Glo catalytic activity assay, PDE3A", "format": "biochemical", "description": "as §1"}, "[1]": {"details": "ratio of IC50 values, vs GRMS-55"}}, "data": [{"compound": "Cn1c(=O)c2c(nc(NCCc3ccccc3)n2CCCC(=O)NN=Cc2ccc(O)c(O)c2O)n(C)c1=O", "note": "[Compound 34, 4-(1,3-dimethyl-2,6-dioxo-8-(phenethylamino)-2,3,6,7-tetrahydro-1H-purin-7-yl)-N′-(2,3,4-trihydroxybenzylidene)butanehydrazide]", "values": [{"measurement": "IC50", "setting": "hrPDE1B; human recombinant PDE1B, CV% in brackets, read-out: IC50 (µM) Against PDE Isoform (CV%) PDE1B", "result": 0.21, "unit": "µM"}, {"measurement": "times more potent than GRMS-55 in inhibiting PDE1B", "setting": "hrPDE1B; [1]", "result": 12, "unit": "times"}, {"measurement": "inhibitory activity against PDE1B, times higher than that of vinpocetine", "setting": "hrPDE1B; ratio of IC50 values, vs vinpocetine", "result": "around 36 times"}, {"measurement": "IC50", "setting": "hrPDE3A; human recombinant PDE3A, CV% in brackets, read-out: IC50 (µM) Against PDE Isoform (CV%) PDE3A", "result": 0.78, "unit": "µM"}, {"measurement": "times more potent than GRMS-55 in inhibiting PDE3A", "setting": "hrPDE3A; [1]", "result": 17, "unit": "times"}, {"measurement": "inhibitory activity against PDE3A, times lower compared to milrinone", "setting": "hrPDE3A; ratio of IC50 values, vs milrinone", "result": "about 4 times"}]}]}
